Structures can show the parent of a compound that is named as a salt. Where two headings read alike, the source gives them in different places. Blank lines part the entries; values can stand above or below the compound they belong to.
Experiments:
And‐1 [1] = target: T1, And‐1 (Homo sapiens, UniProt O75717); assay: And‐1 luciferase reporter assay (qHTS of LOPAC); assay type: cell-based
T1 construct: expressed in transfected cells
T1 sequence (O75717 1-1129): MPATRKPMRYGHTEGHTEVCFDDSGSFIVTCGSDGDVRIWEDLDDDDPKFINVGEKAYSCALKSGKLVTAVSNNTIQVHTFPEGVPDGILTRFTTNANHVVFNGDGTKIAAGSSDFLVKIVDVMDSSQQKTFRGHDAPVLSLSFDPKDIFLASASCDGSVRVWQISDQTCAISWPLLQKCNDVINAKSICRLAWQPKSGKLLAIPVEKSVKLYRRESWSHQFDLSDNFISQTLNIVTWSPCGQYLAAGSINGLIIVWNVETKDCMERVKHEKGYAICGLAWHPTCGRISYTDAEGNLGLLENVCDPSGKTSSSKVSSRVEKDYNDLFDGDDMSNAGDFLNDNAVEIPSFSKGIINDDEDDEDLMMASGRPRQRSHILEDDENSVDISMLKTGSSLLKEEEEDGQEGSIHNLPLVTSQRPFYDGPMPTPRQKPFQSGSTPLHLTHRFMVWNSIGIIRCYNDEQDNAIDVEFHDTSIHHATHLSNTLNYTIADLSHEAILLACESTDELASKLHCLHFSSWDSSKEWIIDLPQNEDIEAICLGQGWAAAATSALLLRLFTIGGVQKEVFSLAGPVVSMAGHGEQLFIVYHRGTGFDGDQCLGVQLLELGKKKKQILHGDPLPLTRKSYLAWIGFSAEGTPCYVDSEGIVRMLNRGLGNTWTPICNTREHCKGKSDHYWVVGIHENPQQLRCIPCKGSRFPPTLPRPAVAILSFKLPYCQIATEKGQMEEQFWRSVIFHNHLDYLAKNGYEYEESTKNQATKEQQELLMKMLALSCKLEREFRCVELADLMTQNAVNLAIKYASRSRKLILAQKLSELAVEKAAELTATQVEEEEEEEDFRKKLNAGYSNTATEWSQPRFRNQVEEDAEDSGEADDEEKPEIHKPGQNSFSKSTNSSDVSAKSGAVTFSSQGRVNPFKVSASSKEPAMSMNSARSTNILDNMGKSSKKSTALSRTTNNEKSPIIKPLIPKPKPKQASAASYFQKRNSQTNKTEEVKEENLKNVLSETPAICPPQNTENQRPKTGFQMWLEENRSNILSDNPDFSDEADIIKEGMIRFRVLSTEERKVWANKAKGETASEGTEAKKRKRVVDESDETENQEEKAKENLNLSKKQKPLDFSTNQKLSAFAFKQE
Description: And‐1‐Luc reporter HEK293 cells were dispensed at 2000 cells/5 μl/well in tissue culture treated white wall/solid bottom 1536‐well plates (Greiner Bio‐One North America, Monroe, NC, USA) using a Thermo Scientific Multidrop Combi (ThermoFisher Scientific, Inc.). After the cells were incubated in assay plates at 37°C for 5 h, 23 nl of compounds (LOPAC) was transferred into the assay plates using a Wako Pintool station (Wako Automation, San Diego, CA, USA). The assay plates were incubated at 37°C for 48 h, followed by the addition of 5 μl ONE‐Glo luciferase reagent (Promega, Madison, WI, USA) using a Flying Reagent Dispenser (Aurora Discovery, Carlsbad, CA, USA). After 30 min of incubation at room temperature, the luminescence intensity of the assay plates was quantified using a ViewLux plate reader (PerkinElmer, Shelton, CT, USA).
(§1) To evaluate whether And‐1 is required for tumor survival, we examined the dependence of a broad range of tumor cells on And‐1 by using dependency score analysis from DepMap (https://depmap.org/portal/). […] To identify And‐1 specific pharmacologic inhibitor, we established an HTS assay to identify small molecules that can inhibit And‐1 by inducing its degradation. To this end, we first established two stable cell lines, HEK293T‐And‐1‐Luc expressing And‐1 protein fused to a luciferase reporter gene, and HEK293T‐Luc expressing luciferase only (Figure 1B). HEK293T‐And‐1‐Luc cells allow us to monitor And‐1 protein levels by measuring luciferase activity in a high‐throughput manner. Using these cell lines, we conducted a screening for And‐1 inhibitors against a LOPAC small molecule library by using a quantitative HTS (qHTS) as we described previously.[46]

And‐1 [2] = target: T1, And‐1; assay: Immunoblot of And‐1 expression in IGROV1 cells; assay type: cell-based; details: read-out: IC50, And‐1 expression
Description: (§2) The assay was as previously described.[45]
as §1
(A) Dependency score of WDHD1/And‐1 analyzed by DepMap. […] (B) Establishment of HEK293T‐And‐1‐Luc and HEK293T‐Luc cells for the high‐throughput screen (HTS). (C) Schematic diagram of quantitative HTS (qHTS) for And‐1 inhibitors. (D) Immunoblot analyses to detect And‐1 expression in IGROV1 cells treated with resveratrol at indicated concentrations. (E) Chemical structures of resveratrol and its three analogs as indicated. (F) Left, immunoblot analyses to detect And‐1 expression in IGROV1 cells treated with And‐1 inhibitors at the indicated concentration. Right, quantification of And‐1 expression shown in the left panel.

IGROV1 CR cells = assay: SRB cell viability assay, combination with cisplatin; assay type: cell-based, human; details: by combination index (CI < 1 synergism)
Description: as §2
Synergy of each combination was indicated as combination index (CI) values. […] (C) Tumors of IGROV1 CR xenograft treated with control (vehicle), cisplatin (8 mg/kg/day intraperitoneally), CH3 (20 mg/kg/3days intraperitoneally), or a combination of CH3 and cisplatin for 3 weeks. Ruler scale is in centimeters. (D) Growth curves of IGROV1 CR xenografts. […] (E) IHC staining against And‐1 antibodies of tumor samples from four treated groups of mice. Scale bar: 50 μm. […] Ruler scale is in centimeters. (G) Growth curves of IGROV1 CR xenografts. […] (H) IHC staining against And‐1 antibodies of tumor samples from four treated groups of mice. Scale bar: 50 μm.

IGROV1 cells [3] = assay: Flow cytometry cell cycle analysis (propidium iodide); assay type: cell-based, human; details: 1 µM, FACS
Description: And‐1 is involved in DNA replication in the S‐phase and is required for the S‐phase progression.[15] We assumed that And‐1 inhibitors should be able to inhibit DNA replication by targeting And‐1.
(§3) Supplementary Figure S1. Identification of novel And-1 inhibitors. […]
Molecular weight of each compound was indicated. (C) Flow cytometry

IGROV1 cells [4] = assay: Immunofluorescence of CtIP recruitment to micro-irradiation induced DSB sites; assay type: cell-based, human; details: 1 µM
Description: as §3
siAnd-1. S: S phase. (D) Immunofluorescence assay to detect CtIP and γH2AX foci formation after CH3 […]
IGROV1 cells treated with DMSO, 1 […]
to immunostain γH2AX and CtIP. For each experiment, 50 cells were counted and the percentage of cells with co-localization of γH2AX and CtIP foci was determined. Data represent means ± SEM from three independent experiments. (E) HR reporter assay to detect HR repair efficiency in cells treated with CH3. […]

IGROV1 CR xenografts = assay: Cisplatin resistant IGROV1 CR xenograft in nude mice; assay type: in vivo, mouse
[5] = design: method as in PMID 15779070; details: due to rapid metabolism; cited from earlier work
[6] = reduction of luciferase activity, qHTS, column 1, read-out: IC50 (uM) 1
[7] = reduction of luciferase activity, qHTS, column 2
[8] = reduction of luciferase activity, qHTS, average of 1 and 2, read-out: IC50 (uM) average
[9] = reduction of luciferase activity, qHTS, column 2, read-out: IC50 (uM) 2

- DC50 (And‐1 [1]; [6]): 1.67 µM
- IC50 (uM) 2 (And‐1 [1]; [7]): inactive
SMILES: COc1cc2c(cc1O)CC[C@@H]1[C@@H]2CC[C@]2(C)[C@@H](O)CC[C@@H]12 [2-methoxyestradiol]

SMILES: CC[C@@]1(O)C(=O)OCc2c1cc1n(c2=O)Cc2cc3ccccc3nc2-1 [(S)-(+)-Camptothecin]
- IC50 (And‐1 [1]; [6]): 0.73 µM
- IC50 (uM) 2 (And‐1 [1]; [7]): inactive

SMILES: CC[n+]1c(/C=C/C=C2/N(C)c3ccccc3C2(C)C)sc2ccccc21 [AC-93253 iodide]
- IC50 (And‐1 [1]; [8]): 0.76 µM
- IC50 (And‐1 [1]; [6]): 1.09 µM
- IC50 (And‐1 [1]; [9]): 0.44 µM

- DC50 (And‐1 [2]): 0.32 µM
SMILES: Cc1c(-c2ccc(O)cc2)n(Cc2ccc(OCCN3CCCCCC3)cc2)c2ccc(O)cc12 [BZA, bazedoxifene acetate]
- synergy with cisplatin to inhibit cell proliferation (IGROV1 CR cells): significant synergy with cisplatin
- percentage of cells in the S‐phase (IGROV1 cells [3]): reduced the percentage of cells in the S‐phase
- recruitment of CtIP to DSB sites induced by micro‐irradiation (IGROV1 cells [4]): significantly decreased
- expression of And‐1 in tumours (IHC) (IGROV1 CR xenografts): suppressed expression of And‐1 in tumours
- resistant tumour growth, combination with cisplatin vs cisplatin alone (IGROV1 CR xenografts; cisplatin 8 mg/kg + CH3 20 mg/kg or BZA 2 mg/kg, intraperitoneal, 3 weeks): significantly reduced resistant tumour growth

SMILES: CNc1ccc2oc(C[C@H]3O[C@@]4(CC[C@H]3C)O[C@H]([C@H](C)C(=O)c3ccc[nH]3)[C@H](C)C[C@H]4C)nc2c1C(=O)O [Calcimycin]
- DC50 (And‐1 [1]; [8]): 8.32 µM
- DC50 (And‐1 [1]; [6]): 6.1 µM
- DC50 (And‐1 [1]; [9]): 10.5 µM

- DC50 (And‐1 [1]; [8]): 21.1 µM
- DC50 (And‐1 [1]; [6]): 22.9 µM
- DC50 (And‐1 [1]; [9]): 19.3 µM
SMILES: COCCOC(=O)C1=C(C)NC(C)=C(C(=O)OC/C=C/c2ccccc2)C1c1cccc([N+](=O)[O-])c1 (centres unmarked) [Cilnidipine]

SMILES: c1ccc2c(c1)[I+]c1ccccc1-2 [Diphenyleneiodonium chloride]
- DC50 (And‐1 [1]; read-out: IC50 (uM) 1): 0.84 µM
- DC50 (And‐1 [1]; read-out: IC50 (uM) 2): 0.03 µM
- DC50 (And‐1 [1]; read-out: IC50 (uM) average): 0.43 µM

- DC50 (And‐1 [1]; [6]): 0.02 µM
- IC50 (uM) 2 (And‐1 [1]; [7]): inactive
SMILES: Nc1ccn([C@@H]2O[C@H](CO)[C@@H](O)C2(F)F)c(=O)n1 [Gemcitabine hydrochloride]

SMILES: O=C1C(SCCO)=C(SCCO)C(=O)c2ccccc21 [NSC 95397]
- IC50 (And‐1 [1]; [8]): 9.42 µM
- IC50 (And‐1 [1]; [6]): 11.2 µM
- IC50 (And‐1 [1]; [9]): 7.68 µM

- IC50 (And‐1 [1]; [8]): 21.3 µM
- IC50 (And‐1 [1]; [6]): 18.8 µM
- IC50 (And‐1 [1]; [9]): 23.8 µM
SMILES: C=CCc1cccc(/C=N/NC(=O)CN2CCN(Cc3ccccc3)CC2)c1O [PAC-1]

SMILES: CCN(CC)CCOc1ccc(Nc2ncc3cc(-c4c(Cl)cccc4Cl)c(=O)n(C)c3n2)cc1 [PD-166285 hydrate]
- IC50 (And‐1 [1]; [8]): 3.03 µM
- IC50 (And‐1 [1]; [6]): 3.33 µM
- IC50 (And‐1 [1]; [9]): 2.73 µM

- DC50 (And‐1 [1]; HEK293T‐And‐1‐Luc cells, qHTS, read-out: IC50, reduction of And‐1 levels (screening)): 18.9 µM
- DC50 (And‐1 [1]; [8]): 18.9 µM
- DC50 (And‐1 [1]; [6]): 14.9 µM
- DC50 (And‐1 [1]; [9]): 22.9 µM
- DC50 (And‐1 [2]): 16.7 µM
SMILES: Oc1ccc(/C=C/c2cc(O)cc(O)c2)cc1 [Resveratrol, 3,5,4′‐trihydroxy‐trans‐stilbene]
- oral bioavailability [5]: low oral bioavailability

SMILES: C/C=C(/C)C(=O)O[C@H]1C(C)=C2[C@H]([C@@H]1OC(=O)CCCCCCC)[C@@](C)(OC(C)=O)C[C@H](OC(=O)CCC)[C@@]1(O)[C@H]2OC(=O)[C@@]1(C)O [Thapsigargin]
- DC50 (And‐1 [1]; [8]): 6.95 µM
- DC50 (And‐1 [1]; [6]): 13.3 µM
- DC50 (And‐1 [1]; [9]): 0.63 µM

- IC50 (And‐1 [1]; [6]): 0.61 µM
- IC50 (uM) 2 (And‐1 [1]; [7]): inactive
SMILES: CC[C@@]1(O)C(=O)OCc2c1cc1n(c2=O)Cc2cc3c(CN(C)C)c(O)ccc3nc2-1 [Topotecan hydrochloride hydrate]

From PMC8684776, “Discovery and characterization of potent And‐1 inhibitors for cancer treatment” (Clinical and Translational Medicine, 2021)
